Laboratory results reported in PubChem BioAssay AID2060612 (Molecular Pharmacology Branch, DTP, NCI, 2025).

Test system: 565232-114-T-J1-PDC complex spheroid viability
Assay: Anticancer human tumor 565232-114-T-J1-PDC patient-derived bladder carcinoma cell line growth inhibition [CLK]
Conditions: for IC50: curve of first compound; for viability, T/C: stronger effect = lower value
How it was run: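 Multi-cell-type spheroids combined patient-derived tumor cells with HUVEC endothelial cells and human mesenchymal stem cells. Paired agents were dosed in half-log steps down from about clinical Cmax, or from 10 microM where Cmax was unknown.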

[1] = second compound 0.0316 µM, first compound 0.0316 µM
[2] = second compound 0.0316 µM, first compound 0.1 µM
[3] = second compound 0.0316 µM, first compound 0.316 µM
[4] = second compound 0.0316 µM, first compound 1 µM
[5] = second compound 0.0316 µM, first compound 3.16 µM
[6] = second compound 0.0316 µM, first compound 10 µM
[7] = second compound 0.1 µM, first compound 0.0316 µM
[8] = second compound 0.1 µM, first compound 0.1 µM
[9] = second compound 0.1 µM, first compound 0.316 µM
[10] = second compound 0.1 µM, first compound 1 µM
[11] = second compound 0.1 µM, first compound 3.16 µM
[12] = second compound 0.1 µM, first compound 10 µM
[13] = second compound 0.316 µM, first compound 0.0316 µM
[14] = second compound 0.316 µM, first compound 0.1 µM
[15] = second compound 0.316 µM, first compound 0.316 µM
[16] = second compound 0.316 µM, first compound 1 µM
[17] = second compound 0.316 µM, first compound 3.16 µM
[18] = second compound 0.316 µM, first compound 10 µM
[19] = second compound 1 µM, first compound 0.0316 µM
[20] = second compound 1 µM, first compound 0.1 µM
[21] = second compound 1 µM, first compound 0.316 µM
[22] = second compound 1 µM, first compound 1 µM
[23] = second compound 1 µM, first compound 3.16 µM
[24] = second compound 1 µM, first compound 10 µM
[25] = second compound 3.16 µM, first compound 0.0316 µM
[26] = second compound 3.16 µM, first compound 0.1 µM
[27] = second compound 3.16 µM, first compound 0.316 µM
[28] = second compound 3.16 µM, first compound 1 µM
[29] = second compound 3.16 µM, first compound 3.16 µM
[30] = second compound 3.16 µM, first compound 10 µM
[31] = second compound 10 µM, first compound 0.0316 µM
[32] = second compound 10 µM, first compound 0.1 µM
[33] = second compound 10 µM, first compound 0.316 µM
[34] = second compound 10 µM, first compound 1 µM
[35] = second compound 10 µM, first compound 3.16 µM
[36] = second compound 10 µM, first compound 10 µM
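Further: spheroids exposed to compounds for 7 days before readout.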
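Wherever viability, T/C is given: 100% = DMSO vehicle wells with luminescence normalized to vehicle control.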

Work on `C=CC(=O)N1CCN(c2nc(=O)n(-c3c(C)ccnc3C(C)C)c3nc(-c4c(O)cccc4F)c(F)cc23)C(C)C1` (stereo unspecified) + CNC(=O)c1ccc(Nc2nc(OC3CCCC3)c3c(-c4ccc5nc(C)oc5c4)c[nH]c3n2)c(OC)c1 yielded an IC50 (second compound 0.0316 µM) of over 10000 nM, an IC50 (second compound 0.1 µM) of over 10000 nM and an IC50 (second compound 0.316 µM) of under 31.6 nM. It also gave an IC50 (second compound 1 µM) of under 31.6 nM, an IC50 (second compound 3.16 µM) of under 31.6 nM and an IC50 (second compound 10 µM) of under 31.6 nM. For the same compound, the viability, T/C [1] was 102%, the viability, T/C [2] was 83.5% and the viability, T/C [3] was 98.2%. It also gave a viability, T/C [4] of 94.4%, a viability, T/C [5] of 105% and a viability, T/C [6] of 118%. For the same compound, the viability, T/C [7] was 64.9%, the viability, T/C [8] was 55.1% and the viability, T/C [9] was 57.2%. For the same compound, the viability, T/C [10] was 58.2%, the viability, T/C [11] was 69.6% and the viability, T/C [12] was 58.8%. The viability, T/C [13] was 35.3%, the viability, T/C [14] was 37.5% and the viability, T/C [15] was 34.3%. For the same compound, the viability, T/C [16] was 32.8%, the viability, T/C [17] was 42.5% and the viability, T/C [18] was 37.8%. For the same compound, the viability, T/C [19] was 21.6%, the viability, T/C [20] was 24.7% and the viability, T/C [21] was 25.1%. It also gave a viability, T/C [22] of 26.1%, a viability, T/C [23] of 29.1% and a viability, T/C [24] of 27.5%. It also gave a viability, T/C [25] of 21.4%, a viability, T/C [26] of 19.8% and a viability, T/C [27] of 21.8%. For the same compound, the viability, T/C [28] was 23.6%, the viability, T/C [29] was 28.3% and the viability, T/C [30] was 23.2%. It also gave a viability, T/C [31] of 22.1%, a viability, T/C [32] of 14.6% and a viability, T/C [33] of 18.9%. It also gave a viability, T/C [34] of 26%, a viability, T/C [35] of 28.1% and a viability, T/C [36] of 25%.
Work on `CCCS(=O)(=O)Nc1ccc(F)c(C(=O)c2c[nH]c3ncc(-c4ccc(Cl)cc4)cc23)c1F` + CNC(=O)c1ccc(Nc2nc(OC3CCCC3)c3c(-c4ccc5nc(C)oc5c4)c[nH]c3n2)c(OC)c1 yielded an IC50 (second compound 0.0316 µM) of 5980 nM, an IC50 (second compound 0.1 µM) of 455 nM and an IC50 (second compound 0.316 µM) of under 31.6 nM. The IC50 (second compound 1 µM) was under 31.6 nM, the IC50 (second compound 3.16 µM) was under 31.6 nM and the IC50 (second compound 10 µM) was under 31.6 nM. For the same compound, the viability, T/C [1] was 95.7%, the viability, T/C [2] was 75.2% and the viability, T/C [3] was 75.3%. The viability, T/C [4] was 96.2%, the viability, T/C [5] was 110% and the viability, T/C [6] was 17.2%. For the same compound, the viability, T/C [7] was 56.5%, the viability, T/C [8] was 56.1% and the viability, T/C [9] was 50.7%. For the same compound, the viability, T/C [10] was 46.6%, the viability, T/C [11] was 30.8% and the viability, T/C [12] was 9.67%. For the same compound, the viability, T/C [13] was 36.1%, the viability, T/C [14] was 35.9% and the viability, T/C [15] was 32.9%. The viability, T/C [16] was 32.5%, the viability, T/C [17] was 26.3% and the viability, T/C [18] was 6.44%. The viability, T/C [19] was 23.7%, the viability, T/C [20] was 27.2% and the viability, T/C [21] was 26.4%. The viability, T/C [22] was 23.1%, the viability, T/C [23] was 16.4% and the viability, T/C [24] was 5.45%. It also gave a viability, T/C [25] of 19.1%, a viability, T/C [26] of 20.5% and a viability, T/C [27] of 18.4%. For the same compound, the viability, T/C [28] was 18.8%, the viability, T/C [29] was 18.9% and the viability, T/C [30] was 4.02%. For the same compound, the viability, T/C [31] was 20.4%, the viability, T/C [32] was 17.8% and the viability, T/C [33] was 18.1%. For the same compound, the viability, T/C [34] was 17.2%, the viability, T/C [35] was 11.6% and the viability, T/C [36] was 3.9%.
With `COC1C=CCC(C)C(C)S(=O)(=O)NC(=O)c2ccc3c(c2)N(CC2CCC21)CC1(CCCc2cc(Cl)ccc21)CO3` (stereo unspecified) + CNC(=O)c1ccc(Nc2nc(OC3CCCC3)c3c(-c4ccc5nc(C)oc5c4)c[nH]c3n2)c(OC)c1 the IC50 (second compound 0.0316 µM) was 695 nM, the IC50 (second compound 0.1 µM) was under 31.6 nM and the IC50 (second compound 0.316 µM) was under 31.6 nM. For the same compound, the IC50 (second compound 1 µM) was under 31.6 nM, the IC50 (second compound 3.16 µM) was under 31.6 nM and the IC50 (second compound 10 µM) was under 31.6 nM. For the same compound, the viability, T/C [1] was 89.9%, the viability, T/C [2] was 103% and the viability, T/C [3] was 85.8%. For the same compound, the viability, T/C [4] was 33.2%, the viability, T/C [5] was 6.83% and the viability, T/C [6] was 3.49%. The viability, T/C [7] was 43.1%, the viability, T/C [8] was 36.9% and the viability, T/C [9] was 24.7%. The viability, T/C [10] was 19.2%, the viability, T/C [11] was 7.48% and the viability, T/C [12] was 5.14%. It also gave a viability, T/C [13] of 24.4%, a viability, T/C [14] of 19.1% and a viability, T/C [15] of 16.4%. For the same compound, the viability, T/C [16] was 9.76%, the viability, T/C [17] was 5.62% and the viability, T/C [18] was 3.86%. It also gave a viability, T/C [19] of 15.8%, a viability, T/C [20] of 14.5% and a viability, T/C [21] of 13.3%. The viability, T/C [22] was 7.06%, the viability, T/C [23] was 4.08% and the viability, T/C [24] was 2.86%. The viability, T/C [25] was 11.4%, the viability, T/C [26] was 11% and the viability, T/C [27] was 7.5%. For the same compound, the viability, T/C [28] was 4.35%, the viability, T/C [29] was 2.97% and the viability, T/C [30] was 3%. The viability, T/C [31] was 14.1%, the viability, T/C [32] was 9.12% and the viability, T/C [33] was 6.08%. The viability, T/C [34] was 5.45%, the viability, T/C [35] was 3.56% and the viability, T/C [36] was 3.09%.
